Legend:
[1] = target: human Farnesoid X receptor ligand-binding domain/Gal4 DNA binding domain chimera (Homo sapiens (Human), UniProt Q96RI1); experiment: Cell-based assay of FXR activation (FXR-UAS-bla HEK 293T beta-lactamase reporter); details: cellular FXR beta-lactamase reporter assay; for Emax: HEK-293T, extent of activation relative to GW4064, read-out: % Efficacy; for EC50: FXR-UAS-bla HEK 293T cells, 16 h, pEC50 = -log EC50
Method: FXR activation was measured using a cell line and procedure obtained from Life Technologies (Cat # K1691). FXR-UAS-bla HEK 293T cells contain a human Farnesoid X receptor ligand-binding domain/Gal4 DNA binding domain chimera stably integrated into the CellSensor® UAS-bla HEK 293T cell line. The CellSensor® UAS-bla HEK 293T contains a beta-lactamase reporter gene under control of a UAS response element stably integrated into HEK 293T cells. Activation of FXR by bound ligands results in transcriptional activation of the beta-lactamase reporter gene, which is detected via assay of beta-lactamase activity.
Cells are harvested and diluted into assay medium containing phenol red-free DMEM supplemented with 2% Charcoal-stripped FBS, pyruvate, non-essential amino acids. Cells are then transferred to a 384 well assay plate. Test compounds are dissolved in DMSO and a 3-fold serial dilution series is generated, then further diluted into assay medium. Compounds in assay medium are added to cells in the 384 well plate and allowed to incubate 16 h at 37 C in the presence of 5% CO2.
A FRET-based […] is loaded into cells as its acetomethoxy ester. Intracellular esterases liberate free CCF4, a cephalosporin core linking 7-hydroxycoumarin to fluorescein. In the presence of beta-lactamase activity produced in the presence of FXR agonists, cleavage of CCF4 spatially separates the two dyes and disrupts FRET, so that exciting the coumarin at 409 nm now produces a blue fluorescence signal at 447 nm. The change in FRET signal is plotted against the test compound concentration and fit to a 3-parameter logistical equation. The concentration required to produce 50% activation is expressed as pEC50 (−log EC50), and the extent of activation is expressed relative to GW4064 as % activation.

[2] = target: ligand binding domain of human FXR (Homo sapiens (Human), UniProt Q96RI1); experiment: FXR ligand binding assay (LanthaScreen TR-FRET, SRC2-2 peptide recruitment); details: for pEC50: -log EC50, concentration required to produce 50% activation; for Emax: extent of activation relative to GW4064, read-out: % Efficacy
Method: The affinity of FXR ligands for the ligand binding domain of FXR was determined using a commercially available human FXR ligand binding assay (LanthaScreen, Thermofisher Cat # PV4833). […] Binding of FXR ligands to the FXR ligand binding domain promotes binding of the fluorescein-labelled SRC2-2 peptide. This causes a FRET signal between the terbium-labelled anti-GST antibody and the fluorescein-labelled SRC peptide which are both bound to the FXR ligand binding domain.
Test compounds are dissolved in DMSO and a 3-fold serial dilution series is generated, then further diluted into assay buffer. The compounds are mixed with 5 nM GST-tagged FXR ligand binding domain, 5 nM Tb-labelled anti-GST antibody and 500 nM fluorescein-labelled SRC2-2 peptide in a pH7.4 buffer. The reaction is incubated at room temperature for 1 hour, then the FRET signal is measured as the ratio of the 520 nm/495 nm emission following excitation at 340 nm. The change in FRET signal is plotted against the test article concentration and fit to a 3-parameter logistical equation. The concentration required to produce 50% activation is expressed as pEC50 (−log EC50), and the extent of activation is expressed relative to GW4064 as % activation.

Sequence of human Farnesoid X receptor ligand-binding domain/Gal4 DNA binding domain chimera (Q96RI1 262-486, stated change not applied): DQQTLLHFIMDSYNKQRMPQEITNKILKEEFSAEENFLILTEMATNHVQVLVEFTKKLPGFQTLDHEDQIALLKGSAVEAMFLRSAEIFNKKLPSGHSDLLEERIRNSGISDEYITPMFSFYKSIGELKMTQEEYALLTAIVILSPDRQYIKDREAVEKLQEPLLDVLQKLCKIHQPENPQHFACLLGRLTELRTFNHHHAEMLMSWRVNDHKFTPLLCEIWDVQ
Sequence of human Farnesoid X receptor ligand-binding domain/Gal4 DNA binding domain chimera (P04386 1-147 partner): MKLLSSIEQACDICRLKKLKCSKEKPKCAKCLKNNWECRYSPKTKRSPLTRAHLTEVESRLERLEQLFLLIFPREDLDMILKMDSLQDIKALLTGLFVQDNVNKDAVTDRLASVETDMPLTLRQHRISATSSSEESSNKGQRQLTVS
Sequence of ligand binding domain of human FXR (Q96RI1 262-486): as the sequence (Q96RI1 262-486, stated change not applied) above

Structure (SMILES) | Emax [1] | EC50 [1] | pEC50 [2] | Emax [2]
O=C(O)[C@@H]1CCc2cc(N3C[C@@H]4C[C@H]3C[C@H]4OCc3c(-c4c(Cl)cccc4Cl)noc3C3CC3)ccc2C1 (single isomer, unassigned) [Compound I-137] | 106% | 10 nM | 8 | 132%
O=C(O)[C@H]1CCc2cc(N3C[C@@H]4C[C@H]3C[C@H]4OCc3c(-c4c(Cl)cccc4Cl)noc3C3CC3)ccc2C1 (single isomer, unassigned) [Compound I-138] | 106% | 15.8 nM | 7.6 | 132%
O=C(O)c1cc(F)c2nc(N3C[C@@H]4C[C@H]3C[C@H]4OC(=O)c3c(-c4c(Cl)cccc4Cl)noc3C3CC3)sc2c1 [Compound I-1, 2-[(1S,4S,5R)-5-[5-cyclopropyl-3-(2,6-dichlorophenyl)-1,2-oxazole-4-carbonyloxy]-2-azabicyclo[2.2.1]heptan-2-yl]-4-fluoro-1,3-benzothiazole-6-carboxylic Acid] | 126% | 10 nM | 7.4 | 148%
O=C(O)c1ccc2nc(N3C[C@@H]4C[C@H]3C[C@H]4OC(=O)c3c(-c4c(Cl)cccc4Cl)noc3C3CC3)sc2c1 [Compound I-2, 2-[(1S,4S,5R)-5-[5-cyclopropyl-3-(2,6-dichlorophenyl)-1,2-oxazole-4-carbonyloxy]-2-azabicyclo[2.2.1]heptan-2-yl]-1,3-benzothiazole-6-carboxylic acid] | 120% | 10 nM | 7.3 | 138%
Cc1cc(C(=O)O)cc2sc(N3C[C@@H]4C[C@H]3C[C@H]4OC(=O)c3c(-c4c(Cl)cccc4Cl)noc3C3CC3)nc12 [Compound I-3, 2-[(1S,4S,5R)-5-[5-cyclopropyl-3-(2,6-dichlorophenyl)-1,2-oxazole-4-carbonyloxy]-2-azabicyclo[2.2.1]heptan-2-yl]-4-methyl-1,3-benzothiazole-6-carboxylic acid] | 123% | 5.01 nM | 7.6 | 153%
O=C(O)c1cc(C2CC2)c2nc(N3C[C@@H]4C[C@H]3C[C@H]4OC(=O)c3c(-c4c(Cl)cccc4Cl)noc3C3CC3)sc2c1 [Compound I-4, 4-cyclopropyl-2-[(1S,4S,5R)-5-[5-cyclopropyl-3-(2,6-dichlorophenyl)-1,2-oxazole-4-carbonyloxy]-2-azabicyclo[2.2.1]heptan-2-yl]-1,3-benzothiazole-6-carboxylic acid] | 112% | 3.16 nM | 7.3 | 166%
C[C@@H]1[C@@H]2C[C@@H](C[C@H]2OCc2c(-c3c(Cl)cccc3Cl)noc2C2CC2)N1c1ccc(C(=O)O)cc1F [Compound I-363, 4-[(1S,3R,4S,5R)-5-[[5-cyclopropyl-3-(2,6-dichlorophenyl)-1,2-oxazol-4-yl]methoxy]-3-methyl-2-azabicyclo[2.2.1]heptan-2-yl]-3-fluorobenzoic acid] | – | – | 7.1 | 61%
C[C@H]1[C@H]2C[C@H](C[C@@H]2OCc2c(-c3c(Cl)cccc3Cl)noc2C2CC2)N1c1ccc(C(=O)O)cc1F [Compound I-364, 4-[(1R,3S,4R,5S)-5-{[5-cyclopropyl-3-(2,6-dichlorophenyl)-1,2-oxazol-4-yl]methoxy}-3-methyl-2-azabicyclo[2.2.1]heptan-2-yl]-3-fluorobenzoic Acid] | – | – | 6.3 | 47%
CC[C@@H]1[C@@H]2C[C@@H](C[C@H]2OCc2c(-c3c(Cl)cccc3Cl)noc2C2CC2)N1c1ccc(C(=O)O)cc1 [Compound I-365, 4-[(1S,3R,4S,5R)-5-[[5-cyclopropyl-3-(2,6-dichlorophenyl)-1,2-oxazol-4-yl]methoxy]-3-ethyl-2-azabicyclo[2.2.1]heptan-2-yl]benzoic acid] | – | – | 6.4 | 67%
CC[C@H]1[C@H]2C[C@H](C[C@@H]2OCc2c(-c3c(Cl)cccc3Cl)noc2C2CC2)N1c1ccc(C(=O)O)cc1 [Compound I-366, 4-[(1R,3S,4R,5S)-5-[[5-cyclopropyl-3-(2,6-dichlorophenyl)-1,2-oxazol-4-yl]methoxy]-3-ethyl-2-azabicyclo[2.2.1]heptan-2-yl]benzoic acid] | – | – | 6.2 | 56%
C[C@@H]1[C@@H]2C[C@@H](C[C@H]2OCc2c(-c3c(Cl)cccc3Cl)noc2C2CC2)N1c1ccc(C(=O)O)nc1 [Compound I-367, 5-[(1S,3R,4S,5R)-5-[[5-cyclopropyl-3-(2,6-dichlorophenyl)-1,2-oxazol-4-yl]methoxy]-3-methyl-2-azabicyclo[2.2.1]heptan-2-yl]pyridine-2-carboxylic Acid] | – | – | 6.4 | 61%
C[C@H]1[C@H]2C[C@H](C[C@@H]2OCc2c(-c3c(Cl)cccc3Cl)noc2C2CC2)N1c1ccc(C(=O)O)nc1 [Compound I-368, 5-[(1R,3S,4R,5S)-5-[[5-cyclopropyl-3-(2,6-dichlorophenyl)-1,2-oxazol-4-yl]methoxy]-3-methyl-2-azabicyclo[2.2.1]heptan-2-yl]pyridine-2-carboxylic acid] | – | – | 5.8 | 22%
C[C@@H]1[C@@H]2C[C@@H](C[C@H]2OCc2c(-c3c(Cl)cccc3Cl)noc2C2CC2)N1c1ccc(C(=O)O)cn1 [Compound I-369, 6-[(1S,3R,4S,5R)-5-[[5-cyclopropyl-3-(2,6-dichlorophenyl)-1,2-oxazol-4-yl]methoxy]-3-methyl-2-azabicyclo[2.2.1]heptan-2-yl]pyridine-3-carboxylic acid] | – | – | 6.8 | 50%
C[C@H]1[C@H]2C[C@H](C[C@@H]2OCc2c(-c3c(Cl)cccc3Cl)noc2C2CC2)N1c1ccc(C(=O)O)cn1 [Compound I-370, 6-[(1R,3S,4R,5S)-5-[[5-cyclopropyl-3-(2,6-dichlorophenyl)-1,2-oxazol-4-yl]methoxy]-3-methyl-2-azabicyclo[2.2.1]heptan-2-yl]pyridine-3-carboxylic acid] | – | – | 4.5 | 79%
C[C@@H]1[C@@H]2C[C@@H](C[C@H]2OCc2c(-c3c(Cl)cccc3Cl)noc2C2CC2)N1c1ccc(C(=O)NS(=O)(=O)C2CCOCC2)nc1 [Compound I-371, 5-[(1S,3R,4S,5R)-5-[[5-cyclopropyl-3-(2,6-dichlorophenyl)-1,2-oxazol-4-yl]methoxy]-3-methyl-2-azabicyclo[2.2.1]heptan-2-yl]-N-(oxane-4-sulfonyl)pyridine-2-carboxamide] | – | – | 6.7 | 57%
C[C@H]1[C@H]2C[C@H](C[C@@H]2OCc2c(-c3c(Cl)cccc3Cl)noc2C2CC2)N1c1ccc(C(=O)NS(=O)(=O)C2CCOCC2)nc1 [Compound I-372, 5-[(1R,3S,4R,5S)-5-[[5-cyclopropyl-3-(2,6-dichlorophenyl)-1,2-oxazol-4-yl]methoxy]-3-methyl-2-azabicyclo[2.2.1]heptan-2-yl]-N-(oxane-4-sulfonyl)pyridine-2-carboxamide] | – | – | 6.1 | 22%
C[C@@H]1[C@@H]2C[C@@H](C[C@H]2OCc2c(-c3c(Cl)cccc3Cl)noc2C2CC2)N1c1ccc(C(=O)NS(=O)(=O)C2CCOCC2)cn1 [Compound I-373, 6-[(1S,3R,4S,5R)-5-[[5-cyclopropyl-3-(2,6-dichlorophenyl)-1,2-oxazol-4-yl]methoxy]-3-methyl-2-azabicyclo[2.2.1]heptan-2-yl]-N-(oxane-4-sulfonyl)pyridine-3-carboxamide] | – | – | 7.2 | 62%
C[C@H]1[C@H]2C[C@H](C[C@@H]2OCc2c(-c3c(Cl)cccc3Cl)noc2C2CC2)N1c1ccc(C(=O)NS(=O)(=O)C2CCOCC2)cn1 [Compound I-374, 6-[(1R,3S,4R,5S)-5-[[5-cyclopropyl-3-(2,6-dichlorophenyl)-1,2-oxazol-4-yl]methoxy]-3-methyl-2-azabicyclo[2.2.1]heptan-2-yl]-N-(oxane-4-sulfonyl)pyridine-3-carboxamide] | – | – | 6 | 48%

— patent US10793568B2, “Hormone receptor modulators for treating metabolic conditions and disorders” (ARDELYX, INC., priority 2016, dated 2020)
